From ChEMBL document CHEMBL1158814, “Lehualides A-D, metabolites from a Hawaiian sponge of the genus Plakortis” (J Nat Prod, 2005)
≈ marks a conversion by molar mass, not a printed value.

What was measured:
[1] = Toxicity against brine shrimp; format: organism-based; settings: artemia, in vivo; read-out: LD50 (the source's name)
[2] = Cytotoxicity against human IGROV-ET cells; format: functional
K562 = experiment: Cytotoxicity against human K562 cells; format: functional

Compound | LC50 [1] [µg/mL] | GI50 [2] [µM] | GI50 (K562) [µM]
COc1c(O)c(C)c(C/C=C(\C)CC/C=C(/C)C/C(C)=C/Cc2ccccc2)oc1=O [LEHUALIDE A] | 50 (≈ 118 µM) | – | –
COc1oc(C/C=C(\C)CC/C=C(/C)C/C(C)=C/Cc2ccccc2)c(C)c(=O)c1OC [LEHUALIDE B] | 15 (≈ 34.4 µM) | 0.83 | –
COc1oc(C/C=C(\C)CCCCCCCCCSC(C)=O)c(C)c(=O)c1OC [LEHUALIDE C] | 15 (≈ 35.3 µM) | – | –
COc1oc(C/C=C(\C)CCCCCCCCCS)c(C)c(=O)c1OC [LEHUALIDE D] | 15 (≈ 39.2 µM) | 0.73 | 0.23
